Reference: patent US20210300943A1, “OGA INHIBITOR COMPOUNDS” (Janssen Pharmaceutica NV, priority 2018, published 2021)

Molecular target: T1, recombinant human Meningioma Expressed Antigen 5 (MGEA5), also referred to as O-GlcNAcase (OGA) (Homo sapiens, UniProt O60502)
T1 construct: Full length OGA enzyme was purchased at OnGene (cat #TP322411); purchased OnGene (so in the source)
T1 sequence (O60502 1-916): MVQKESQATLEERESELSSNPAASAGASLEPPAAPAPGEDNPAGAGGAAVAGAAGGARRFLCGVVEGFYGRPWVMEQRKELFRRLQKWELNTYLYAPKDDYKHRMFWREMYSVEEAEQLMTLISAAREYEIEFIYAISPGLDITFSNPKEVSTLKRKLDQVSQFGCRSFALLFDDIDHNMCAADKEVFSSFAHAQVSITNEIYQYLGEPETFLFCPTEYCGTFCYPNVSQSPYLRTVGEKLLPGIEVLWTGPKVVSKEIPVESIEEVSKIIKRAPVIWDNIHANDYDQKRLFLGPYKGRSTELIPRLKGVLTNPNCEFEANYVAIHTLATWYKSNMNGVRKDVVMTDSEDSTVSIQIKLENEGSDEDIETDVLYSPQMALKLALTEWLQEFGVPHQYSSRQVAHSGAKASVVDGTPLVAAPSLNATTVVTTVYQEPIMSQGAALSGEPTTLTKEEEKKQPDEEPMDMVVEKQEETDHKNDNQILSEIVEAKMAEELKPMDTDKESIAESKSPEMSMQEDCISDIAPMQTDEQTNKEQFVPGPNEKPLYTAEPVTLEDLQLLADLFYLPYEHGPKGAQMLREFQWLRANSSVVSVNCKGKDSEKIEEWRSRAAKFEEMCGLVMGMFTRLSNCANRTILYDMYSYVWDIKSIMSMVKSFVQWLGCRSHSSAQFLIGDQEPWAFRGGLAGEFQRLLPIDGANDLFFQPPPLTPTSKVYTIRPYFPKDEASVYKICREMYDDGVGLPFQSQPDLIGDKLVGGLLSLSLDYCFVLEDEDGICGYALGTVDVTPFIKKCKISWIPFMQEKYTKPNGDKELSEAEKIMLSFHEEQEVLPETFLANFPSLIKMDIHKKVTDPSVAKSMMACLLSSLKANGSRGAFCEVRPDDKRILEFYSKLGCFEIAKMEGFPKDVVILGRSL
Assay: OGA biochemical assay (inhibition of FM-GlcNAc hydrolysis, fluorescence)
Details: for Emax / Enzymatic Emax (%): maximal effect; for Emax: read-out: Enzymatic Emax (%); for IC50: read-out: Enzymatic hOGA, pIC50 (converted)
From the text: The assay is based on the inhibition of the hydrolysis of fluorescein mono-β-D-N-Acetyl-Glucosamine (FM-GlcNAc) (Mariappa et al. 2015, Biochem J 470:255) by the recombinant human Meningioma Expressed Antigen 5 (MGEA5), also referred to as O-GlcNAcase (OGA). The hydrolysis FM-GlcNAc (Marker Gene technologies, cat #M1485) results in the formation of β-D-N-glucosamineacetate and fluorescein. The fluorescence of the latter can be measured at excitation wavelength 485 nm and emission wavelength 538 nm. An increase in enzyme activity results in an increase in fluorescence signal. Full length OGA enzyme was purchased at OnGene (cat #TP322411). The enzyme was stored in 25 mM Tris.HCl, pH 7.3, 100 mM glycine, 10% glycerol at −20° C. Thiamet G and GlcNAcStatin were tested as reference compounds (Yuzwa et al. 2008 Nature Chemical Biology 4:483; Yuzwa et al. 2012 Nature Chemical Biology 8:393). The assay was performed in 200 mM Citrate/phosphate buffer supplemented with 0.005% Tween-20. 35.6 g Na2HPO42H2O (Sigma, #C0759) were dissolved in 1 L water to obtain a 200 mM solution. 19.2 g citric acid (Merck, #1.06580) was dissolved in 1 L water to obtain a 100 mM solution. pH of the sodiumphosphate solution was adjusted with the citric acid solution to 7.2. The buffer to stop the reaction consists of a 500 mM Carbonate buffer, pH 11.0. 734 mg FM-GlcNAc were dissolved in 5.48 mL DMSO to obtain a 250 mM solution and was stored at −20° C. OGA was used at a 2 nM concentration and FM-GlcNAc at a 100 uM final concentration. Dilutions were prepared in assay buffer.
50 nl of a compound dissolved in DMSO was dispensed on Black Proxiplate TM 384 Plus Assay plates (Perkin Elmer, #6008269) and 3 μl fl-OGA enzyme mix added subsequently. Plates were pre-incubated for 60 min at room temperature and then 2 μl FM-GlcNAc substrate mix added. […] Plates were briefly centrifuged for 1 min at 1000 rpm and incubate at room temperature for 6 h. To stop the reaction 5 μl STOP buffer were added and plates centrifuge again 1 min at 1000 rpm. Fluorescence was quantified in the Thermo Scientific Fluoroskan Ascent or the PerkinElmer EnVision with excitation wavelength 485 nm and emission wavelength 538 nm.
For analysis a best-fit curve is fitted by a minimum sum of squares method. From this an IC50 value and Hill coefficient was obtained. High control (no inhibitor) and low control (saturating concentrations of standard inhibitor) were used to define the minimum and maximum values.

| Emax | IC50 | Enzymatic Emax (%) | Compound |
| --- | --- | --- | --- |
| 98% | 0.316 µM | – | Cc1cc(OC[C@@H]2CCCN(C(C)c3ccc4c(n3)OCCO4)C2)cc(C)n1 (mixture of isomers) [Product 20] |
| 102% | 0.126 µM | – | Cc1cc(C[C@H]2CCCN(C(C)c3ccc4c(c3)OCC(=O)N4)C2)cc(C)n1 (mixture of isomers) [Product 58] |
| 77% | 3.16 µM | – | Cc1cc(C[C@H]2CCCN(C(C)c3ccc4c(n3)OCC(=O)N4C)C2)cc(C)n1 (mixture of isomers) [Product 62] |
| 1% | > 10 µM | – | Cc1cc(C[C@H]2CCCN(C(C)c3cc4c(cc3C)OCCO4)C2)cc(C)n1 (mixture of isomers) [Product 126] |
| 102% | 0.2 µM | – | COc1cc(NC[C@@H]2CCCN(C(C)c3ccc4c(n3)OCCO4)C2)cc(C)n1 (mixture of isomers) [Product 27] |
| 102% | 0.00316 µM | – | Cc1cc([C@H]2CCCN([C@@H](C)c3ccc4c(c3)OCC4)C2)cc(C)n1 (single isomer, unassigned) [Product 5] |
| 101% | 0.126 µM | – | Cc1cc([C@@H]2CCCN([C@H](C)c3ccc4c(c3)OCC4)C2)cc(C)n1 (single isomer, unassigned) [Product 6] |
| 103% | 0.0794 µM | – | COc1cc(NC[C@H]2CCCN(C(C)c3ccc4c(n3)OCCO4)C2)cc(C)n1 (single isomer, unassigned) [Product 25] |
| 99% | 1 µM | – | COc1cc(NC[C@@H]2CCCN(C(C)c3ccc4c(n3)OCCO4)C2)cc(C)n1 (single isomer, unassigned) [Product 28] |
| – | 0.0794 µM | 97% | COc1cc(NC[C@@H]2CCCN(C(C)c3ccc4c(n3)OCCO4)C2)cc(C)n1 (single isomer, unassigned) [Product 29] |
| 99% | 0.398 µM | – | Cc1cc(NC[C@H]2CCCN([C@H](C)c3ccc4c(n3)OCCO4)C2)cc(C(F)(F)F)n1 (single isomer, unassigned) [Product 32] |
| – | 0.2 µM | 100% | Cc1cc(NCC2CCCN(C(C)c3ccc4c(n3)OCCO4)C2)cc(C(F)(F)F)n1 (single isomer, unassigned) [Product 34] |
| – | 2.51 µM | 88% | Cc1cc(NCC2CCCN(C(C)c3ccc4c(n3)OCCO4)C2)cc(C(F)(F)F)n1 (single isomer, unassigned) [Product 35] |
| 94% | 1 µM | – | Cc1cc(C[C@H]2CCCN([C@H](C)c3cc4c(cc3F)OCCO4)C2)cc(C)n1 (single isomer, unassigned) [Product 41] |
| 98% | 0.501 µM | – | Cc1cc(C[C@H]2CCCN(C(C)c3ccc4c(n3)OCCO4)C2)cc(C)n1 (single isomer, unassigned) [Product 45] |
| 101% | 0.2 µM | – | Cc1cc(C[C@H]2CCCN(C(C)c3cnc4c(c3)OCCN4)C2)cc(C)n1 (single isomer, unassigned) [Product 51] |
| – | 3.16 µM | 78% | Cc1cc(C[C@H]2CCCN(C(C)c3ccc4c(n3)OCC(=O)N4)C2)cc(C)n1 (single isomer, unassigned) [Product 60] |

| Emax | IC50 | Enzymatic Emax (%) | Compound |
| --- | --- | --- | --- |
| 97% | 0.501 µM | – | Cc1cc(C[C@H]2CCCN([C@@H](C)c3cnc4c(c3)OCCO4)C2)cc(C)n1 (single isomer, unassigned) [Product 131] |
| 98% | 0.501 µM | – | Cc1cc([C@@H]2CCCN([C@H](C)c3cc4c(cc3F)OCCO4)C2)cc(C(F)(F)F)n1 (single isomer, unassigned) [Product 141] |
| 52% | – | – | Cc1cc([C@H]2CCCN([C@H](C)c3cc4c(cc3F)OCCO4)C2)cc(C(F)(F)F)n1 (single isomer, unassigned) [Product 142] |
| 87% | 2.51 µM | – | Cc1cc([C@@H]2CCCN([C@@H](C)c3cc4c(cc3F)OCCO4)C2)cc(C(F)(F)F)n1 (single isomer, unassigned) [Product 143] |
| 99% | 0.00316 µM | – | Cc1cc([C@H]2CCCN([C@@H](C)c3cc4c(cc3F)OCCO4)C2)cc(C(F)(F)F)n1 (single isomer, unassigned) [Product 144] |
| 97% | 0.794 µM | – | Cc1cc([C@H]2CCCN([C@H](C)c3ccc4c(c3)OCC4)C2)cc(C)n1 [Product 3] |
| 96% | 0.501 µM | – | Cc1cnc(C)c(C2CCCN(C(C)c3ccc4c(n3)OCCO4)C2)n1 (stereo not shown) [Product 12] |
| 99% | 0.0794 µM | – | Cc1cc(O[C@@H]2CCCN([C@@H](C)c3cnc4c(c3)OCCN4)C2)cc(C(F)(F)F)n1 [Product 17] |
| 102% | 0.00501 µM | – | Cc1cc(NCC2CCCN(C(C)c3cc4c(cc3F)OCCO4)C2)cc(C)n1 (stereo not shown) [Product 37] |
| 102% | 0.00631 µM | – | COc1cc(NCC2CCCN(C(C)c3cc4c(cc3F)OCCO4)C2)cc(C)n1 (stereo not shown) [Product 38] |
| 92% | 0.794 µM | – | Cc1cc(C[C@H]2CCCN(Cc3cc4c(cc3C)OCCO4)C2)cc(C)n1 [Product 39] |
| 94% | 0.794 µM | – | Cc1cc(C[C@H]2CCCN(Cc3cnc4c(c3)OCCN4C)C2)cc(C)n1 [Product 53] |
| 78% | 3.16 µM | – | Cc1cc(C[C@H]2CCCN(Cc3ccc4c(n3)OCC(=O)N4)C2)cc(C)n1 [Product 54] |
| 90% | 1.26 µM | – | Cc1cc(C[C@H]2CCCN(Cc3cnc4c(c3)OCC(=O)N4)C2)cc(C)n1 [Product 55] |
| 102% | 0.2 µM | – | COc1cc(C[C@H]2CCCN([C@@H](C)c3ccc4c(n3)OCCO4)C2)cc(C)n1 [Product 65] |
| 10% | > 10 µM | – | Cc1cc(C[C@H]2CCCN(Cc3cnc4c(c3)OCC(=O)N4C)C2)cc(C)n1 [Product 127] |
| 96% | 0.158 µM | – | CC(c1ccc2c(n1)OCCO2)N1CCCC(Oc2ncc(F)cc2F)C1 (stereo not shown) [Product 134] |
